Test results from patent publication US7307091B2, “Deuterated 3-piperidinopropiophenone and medicaments containing said compounds” (BDD Berolina Drug Development GmbH, priority 2001, dated 2007).

Columns and labels:
CYP2C19 = target: T1, CYP2C19 (Homo sapiens, UniProt P33261); assay: In-vitro biological degradation by cytochrome P450 enzymes: CYP2C19; type: in vitro ADME
T1 construct: expressed in transfected cells; host or cells: cell line named only by the CYP it carries

CYP2D6 = target: T2, CYP2D6 (Homo sapiens, UniProt P10635); assay: In-vitro biological degradation by cytochrome P450 enzymes: CYP2D6; type: in vitro ADME
T2 construct: expressed in transfected cells; host or cells: cell line named only by the CYP it carries
T2 sequence (P10635 whole entry): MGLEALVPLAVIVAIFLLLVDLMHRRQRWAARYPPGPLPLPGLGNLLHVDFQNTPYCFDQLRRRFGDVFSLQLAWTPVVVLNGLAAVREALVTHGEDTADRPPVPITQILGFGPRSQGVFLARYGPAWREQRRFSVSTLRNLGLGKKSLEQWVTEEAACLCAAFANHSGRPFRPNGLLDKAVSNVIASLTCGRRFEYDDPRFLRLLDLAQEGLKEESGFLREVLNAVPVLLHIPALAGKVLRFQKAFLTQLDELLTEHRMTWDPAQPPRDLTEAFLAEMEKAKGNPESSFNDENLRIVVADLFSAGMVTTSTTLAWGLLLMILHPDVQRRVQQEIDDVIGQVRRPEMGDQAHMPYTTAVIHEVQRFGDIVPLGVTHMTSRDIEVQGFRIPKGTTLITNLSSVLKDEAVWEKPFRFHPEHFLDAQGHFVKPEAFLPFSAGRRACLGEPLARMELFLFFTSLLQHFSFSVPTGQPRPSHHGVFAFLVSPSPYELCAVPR

CYP1A1 = target: T3, CYP1A1 (Homo sapiens, UniProt P04798); assay: In-vitro biological degradation by cytochrome P450 enzymes: CYP1A1; type: in vitro ADME; conditions: 37° C., pH 7.4, 3 mM NADPH, protein 0.5 mg/mL; FIG. 1
T3 construct: expressed in transfected cells; host or cells: cell line named only by the CYP it carries
T3 sequence (P04798 1-512): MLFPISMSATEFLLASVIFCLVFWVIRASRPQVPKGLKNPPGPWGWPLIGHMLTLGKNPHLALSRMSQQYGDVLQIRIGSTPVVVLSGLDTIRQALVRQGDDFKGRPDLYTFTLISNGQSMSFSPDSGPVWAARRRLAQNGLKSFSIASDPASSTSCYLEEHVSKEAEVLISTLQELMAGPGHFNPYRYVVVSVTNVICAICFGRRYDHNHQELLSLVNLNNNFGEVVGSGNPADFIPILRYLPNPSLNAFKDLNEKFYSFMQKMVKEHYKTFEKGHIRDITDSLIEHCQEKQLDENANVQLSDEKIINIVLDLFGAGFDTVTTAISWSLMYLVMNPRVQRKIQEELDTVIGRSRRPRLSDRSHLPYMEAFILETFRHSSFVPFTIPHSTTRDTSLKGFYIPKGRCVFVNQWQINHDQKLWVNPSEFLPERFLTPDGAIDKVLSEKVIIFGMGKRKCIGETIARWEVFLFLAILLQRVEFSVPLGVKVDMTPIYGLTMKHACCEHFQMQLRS

CYP1A2 = target: T4, CYP1A2 (Homo sapiens, UniProt P05177); assay: In-vitro biological degradation by cytochrome P450 enzymes: CYP1A2; type: in vitro ADME; conditions: 37° C., pH 7.4, 3 mM NADPH, protein 0.5 mg/mL; FIG. 1
T4 construct: expressed in transfected cells; host or cells: cell line named only by the CYP it carries
T4 sequence (P05177 1-516): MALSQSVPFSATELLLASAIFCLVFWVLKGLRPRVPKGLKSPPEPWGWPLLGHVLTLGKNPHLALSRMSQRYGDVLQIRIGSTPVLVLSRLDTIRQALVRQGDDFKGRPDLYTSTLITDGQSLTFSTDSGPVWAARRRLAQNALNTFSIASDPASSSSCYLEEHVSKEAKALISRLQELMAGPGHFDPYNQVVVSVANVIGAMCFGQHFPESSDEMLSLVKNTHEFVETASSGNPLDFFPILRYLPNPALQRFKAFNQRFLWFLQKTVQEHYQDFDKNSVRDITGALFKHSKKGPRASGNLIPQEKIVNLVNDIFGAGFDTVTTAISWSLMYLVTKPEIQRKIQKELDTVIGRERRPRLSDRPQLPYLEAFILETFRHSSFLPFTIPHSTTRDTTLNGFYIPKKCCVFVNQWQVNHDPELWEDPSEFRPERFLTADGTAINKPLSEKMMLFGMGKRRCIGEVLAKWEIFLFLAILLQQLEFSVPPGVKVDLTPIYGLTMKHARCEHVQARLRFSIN

CYP2C8 = target: T5, CYP2C8 (Homo sapiens, UniProt P10632); assay: In-vitro biological degradation by cytochrome P450 enzymes: CYP2C8; type: in vitro ADME; conditions: 37° C., pH 7.4, 3 mM NADPH, protein 0.5 mg/mL; FIG. 1
T5 construct: expressed in transfected cells; host or cells: cell line named only by the CYP it carries
T5 sequence (P10632 1-490): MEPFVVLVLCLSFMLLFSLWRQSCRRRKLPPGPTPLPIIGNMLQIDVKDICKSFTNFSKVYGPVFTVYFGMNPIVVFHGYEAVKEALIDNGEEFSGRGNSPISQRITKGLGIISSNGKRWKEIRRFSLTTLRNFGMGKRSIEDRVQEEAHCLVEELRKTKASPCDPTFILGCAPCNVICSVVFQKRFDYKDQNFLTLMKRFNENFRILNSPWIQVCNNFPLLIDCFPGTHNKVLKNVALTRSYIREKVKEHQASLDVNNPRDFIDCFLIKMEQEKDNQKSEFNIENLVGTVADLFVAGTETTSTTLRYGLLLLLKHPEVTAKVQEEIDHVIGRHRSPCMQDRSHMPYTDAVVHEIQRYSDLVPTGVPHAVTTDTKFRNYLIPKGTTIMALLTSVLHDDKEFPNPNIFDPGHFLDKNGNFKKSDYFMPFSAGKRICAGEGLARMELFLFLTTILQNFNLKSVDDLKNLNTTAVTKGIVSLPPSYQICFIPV

CYP2E1 = target: T6, CYP2E1 (Homo sapiens, UniProt P05181); assay: In-vitro biological degradation by cytochrome P450 enzymes: CYP2E1; type: in vitro ADME; conditions: 37° C., pH 7.4, 3 mM NADPH, protein 0.5 mg/mL; FIG. 1
T6 construct: expressed in transfected cells; host or cells: cell line named only by the CYP it carries
T6 sequence (P05181 whole entry): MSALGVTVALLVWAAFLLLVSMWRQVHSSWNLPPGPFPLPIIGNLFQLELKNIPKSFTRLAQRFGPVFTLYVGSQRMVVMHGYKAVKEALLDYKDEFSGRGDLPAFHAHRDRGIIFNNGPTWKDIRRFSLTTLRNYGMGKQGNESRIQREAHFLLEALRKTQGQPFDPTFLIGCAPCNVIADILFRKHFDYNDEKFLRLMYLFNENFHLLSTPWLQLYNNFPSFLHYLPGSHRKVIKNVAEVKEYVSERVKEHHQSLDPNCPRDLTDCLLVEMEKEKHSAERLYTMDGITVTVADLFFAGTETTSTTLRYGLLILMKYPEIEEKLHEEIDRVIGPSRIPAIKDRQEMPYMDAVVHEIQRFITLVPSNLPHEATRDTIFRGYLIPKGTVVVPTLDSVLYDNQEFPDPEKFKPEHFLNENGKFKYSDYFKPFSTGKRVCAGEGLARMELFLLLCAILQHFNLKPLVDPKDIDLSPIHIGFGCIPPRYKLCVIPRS

CYP3A4 = target: T7, CYP3A4 (Homo sapiens, UniProt P08684); assay: In-vitro biological degradation by cytochrome P450 enzymes: CYP3A4; type: in vitro ADME; conditions: 37° C., pH 7.4, 3 mM NADPH, protein 0.5 mg/mL; FIG. 1
T7 construct: expressed in transfected cells; host or cells: cell line named only by the CYP it carries
T7 sequence (P08684 whole entry): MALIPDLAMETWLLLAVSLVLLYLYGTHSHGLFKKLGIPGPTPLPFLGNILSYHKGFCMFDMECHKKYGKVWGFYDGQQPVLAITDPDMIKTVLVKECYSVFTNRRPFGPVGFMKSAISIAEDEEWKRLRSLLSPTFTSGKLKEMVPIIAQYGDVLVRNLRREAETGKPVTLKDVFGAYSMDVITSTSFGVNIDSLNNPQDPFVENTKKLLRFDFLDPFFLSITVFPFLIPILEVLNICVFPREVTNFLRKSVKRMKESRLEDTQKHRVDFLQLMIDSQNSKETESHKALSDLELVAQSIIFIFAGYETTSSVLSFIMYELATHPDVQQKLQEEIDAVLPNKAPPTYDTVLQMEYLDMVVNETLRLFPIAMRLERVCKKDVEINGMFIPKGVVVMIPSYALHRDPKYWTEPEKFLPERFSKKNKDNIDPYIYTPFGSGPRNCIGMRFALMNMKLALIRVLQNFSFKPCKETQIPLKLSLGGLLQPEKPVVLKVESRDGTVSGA

[1] = strong first-pass effect; background statement; cited from earlier work
[2] = relative to tolperisone, FIG. 3
[3] = 37° C., pH 7.4, 3 mM NADPH, protein 0.5 mg/mL, LC/MS/MS, FIG. 1
[4] = primary metabolites formed by hydroxylation, FIG. 2

T1 sequence (P33261 whole entry): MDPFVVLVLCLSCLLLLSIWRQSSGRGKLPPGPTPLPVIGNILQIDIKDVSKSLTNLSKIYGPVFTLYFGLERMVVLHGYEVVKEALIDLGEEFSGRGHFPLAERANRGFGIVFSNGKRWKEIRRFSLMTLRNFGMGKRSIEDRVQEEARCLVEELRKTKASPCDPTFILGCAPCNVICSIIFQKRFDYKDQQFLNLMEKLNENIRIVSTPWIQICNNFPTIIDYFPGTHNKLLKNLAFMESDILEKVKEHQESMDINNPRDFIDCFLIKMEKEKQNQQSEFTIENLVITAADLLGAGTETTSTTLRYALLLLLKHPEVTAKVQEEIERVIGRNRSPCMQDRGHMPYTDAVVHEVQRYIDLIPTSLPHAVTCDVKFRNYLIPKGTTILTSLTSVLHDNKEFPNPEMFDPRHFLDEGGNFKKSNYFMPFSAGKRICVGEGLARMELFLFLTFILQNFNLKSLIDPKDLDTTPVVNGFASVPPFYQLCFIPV

| factor by which enzymatic hydroxylation by CYP2C19 is retarded in comparison to tolperisone (CYP2C19; [2]) | factor by which enzymatic hydroxylation by CYP2D6 is retarded in comparison to tolperisone (CYP2D6; [2]) | enzymatic degradation (decrease in tolperisone concentration over time) by CYP2C19 (CYP2C19; [3]) | enzymatic degradation (decrease in tolperisone concentration over time) by CYP2D6 (CYP2D6; [3]) | contribution to biological degradation by CYP1A1 (CYP1A1) | contribution to biological degradation by CYP1A2 (CYP1A2) | contribution to biological degradation by CYP2C8 (CYP2C8) | contribution to biological degradation by CYP2E1 (CYP2E1) | contribution to biological degradation by CYP3A4 (CYP3A4) | SMILES | formation of hydroxy metabolites by CYP2C19 (CYP2C19; [4]) | formation of hydroxy metabolites by CYP2D6 (CYP2D6; [4]) | fraction of the administered dose found unchanged in the blood [1] |
| --- | --- | --- | --- | --- | --- | --- | --- | --- | --- | --- | --- | --- |
| 10 | 10 |  |  |  |  |  |  |  | [2H]c1c([2H])c(C([2H])([2H])[2H])c([2H])c([2H])c1C(=O)C(C)CN1CCCCC1 (stereo not drawn) [I, 1-[4-(trideuteromethyl)tetradeuterophenyl]-2-methyl-3-piperidin-1-yl-1-propanone] |  |  |  |
|  |  | transformed above all | transformed above all | contribute at most insignificantly | contribute at most insignificantly | contribute at most insignificantly | contribute at most insignificantly | contribute at most insignificantly | Cc1ccc(C(=O)C(C)CN2CCCCC2)cc1 (stereo not drawn) [tolperisone] | to the same extent as the substrate is degraded | to the same extent as the substrate is degraded | one-fifth |
